Patent publication US9693995B2, “Pharmaceutical composition for topical administration” (Ziarco Pharma Ltd., priority 2014, dated 2017)

Assays:
[1] = test system: PLA2; conditions: read-out: IC50, inhibition of PLA2 activity; acid extracted intact human neutrophil homogenate; Marshall et al. 1995; cited from earlier work
[2] = target: T1, cPLA2α (Homo sapiens, UniProt P47712); conditions: cellular and enzymatic assays; cited from earlier work
T1 sequence (P47712 1-749): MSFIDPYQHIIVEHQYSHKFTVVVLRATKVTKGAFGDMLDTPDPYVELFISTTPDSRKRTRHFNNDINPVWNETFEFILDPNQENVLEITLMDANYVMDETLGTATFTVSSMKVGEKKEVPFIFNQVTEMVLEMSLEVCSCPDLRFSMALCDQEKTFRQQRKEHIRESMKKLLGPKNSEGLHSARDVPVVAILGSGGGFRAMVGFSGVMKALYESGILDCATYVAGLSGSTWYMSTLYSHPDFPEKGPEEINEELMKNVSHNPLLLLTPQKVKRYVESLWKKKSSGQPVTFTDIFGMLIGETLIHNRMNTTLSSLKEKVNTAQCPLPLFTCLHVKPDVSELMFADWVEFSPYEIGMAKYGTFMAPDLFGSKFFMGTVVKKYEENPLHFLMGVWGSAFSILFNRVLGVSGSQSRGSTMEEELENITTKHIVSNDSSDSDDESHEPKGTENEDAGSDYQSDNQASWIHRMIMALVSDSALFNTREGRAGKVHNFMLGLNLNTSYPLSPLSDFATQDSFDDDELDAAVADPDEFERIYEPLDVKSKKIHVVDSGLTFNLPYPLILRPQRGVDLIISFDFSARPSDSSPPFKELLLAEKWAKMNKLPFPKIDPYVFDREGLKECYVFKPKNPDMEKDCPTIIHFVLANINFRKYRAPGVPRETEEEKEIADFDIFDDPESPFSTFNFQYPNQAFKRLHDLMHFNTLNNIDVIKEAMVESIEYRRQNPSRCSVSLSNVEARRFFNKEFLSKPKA

[3] = test system: PMA-mediated skin oedema; experiment: PMA-induced inflammation in mice (ear thickness by calliper); format: in vivo, Balb/C laboratory mice
Experimental: Phorbol 12-myristate 13-acetate (PMA) is commonly used to induce inflammation and oedema of the skin of laboratory animals as a preclinical inflammation model.
In the present example PMA was dissolved in a 10% ethanol solution to a final concentration of 0.4 μg per μl. A 10 μl was applied to the ears of Balb/C laboratory mice 1 hour after topical application of 3-{4-[2-{5-chloro-1-(diphenylmethyl)-2-[2-({[2-(trifluoromethyl)benzyl]sulfonyl}amino)ethyl]-1H-indol-3-yl}ethyl]sulfonyl}phenyl}propanoic acid (Compound I) in a 10% ethanol solution at either 0.3% or 3% w/w. As a negative control the vehicle was applied without the active compound. Positive controls were indomethacin (a non-steroidal anti-inflammatory drug) and CAY10650 (a known cPLA2α inhibitor).
The level of oedema was monitored by measurement of ear thickness by calliper at intervals of 1, 3, 6 and 24 hours

[4] = Small scale in vitro permeation/penetration experiment, Franz diffusion cell; format: in vitro ADME, human
Excerpt: Commonly, in vitro skin permeation experiments involve the use of a diffusion cell designed to mimic the physiological and anatomical conditions of skin in situ. The model used in this experiment was the Franz diffusion cell (Finnin et al. Topical and Transdermal Drug Delivery 2012: 85-100, Benson and Watkinson (Eds), incorporated herein by reference). Skin prepared as described below was positioned between the two halves of the cell with the Stratum corneum facing the donor compartment allowing for drug application. The aim of the work was to compare the drug concentrations permeating into and across dermatomed human skin when applied from different formulations/solvent systems. […]
Two solvent systems were selected for a small scale in vitro drug permeation study and was dosed as described below: • (i) The cells were assembled as described above. • (ii) Nine cells were assembled. Two solvent system (n=3), respective placebo solvent system (n=1) and a blank cell (n=1) were assessed during the feasibility experiment. • (iii) The selected solvent systems (6 mg) were applied directly to the surface of the skin with a positive displacement pipette (resulting in a dose of approximately 10 mg/cm^2). […] Weights and volumes applied (to ensure a 6 mg dose) were recorded. • (iv) Receiver fluid (200 μL) was removed at the following time points t=0, 1, 2, 4, 6, 24, 30 and 48 h. […]

SMILES: O=C(O)c1ccccc1Oc1ccc(C(F)(F)F)cc1NS(=O)(=O)c1cc(C(F)(F)F)cc(C(F)(F)F)c1 [SB 203347]
- IC50 [1]: 4.7 µM

SMILES: O=C(O)CCc1ccc(S(=O)(=O)CCc2c(CCNS(=O)(=O)Cc3ccccc3C(F)(F)F)n(C(c3ccccc3)c3ccccc3)c3ccc(Cl)cc23)cc1 [Compound I]
- inhibition of cPLA2α activity (potency in words) [2]: sub-low nanomolar inhibitor
- efficacy against PMA-mediated skin oedema relative to positive control ([3]; topical Compound I versus orally-dosed indomethacin): comparable to orally-dosed indomethacin
- reduction in PMA-mediated skin oedema ([3]; topical, 0.3% or 3% w/w in 10% ethanol solution, 1 hour before PMA on ears, ear thickness at 1, 3, 6 and 24 hours): dose-dependent reduction
- total recovery of Compound I ([4]; for each solvent system applied (SS1, SS2), after t=48 h, single skin donor): 90.00-109.72 % of the applied dose
- Compound I detected in the receiver fluid ([4]; solvent systems SS1 and SS2, 48 h experiment, irrespective of sample volume (200 μL, 1.5 mL), receiver fluid EtOH 20% v/v in water): not detected
